Results reported in patent US4704403A, “3-(2,2,2-trisubstituted hydrazinium) propionates” (priority 1983, dated 1987).

Key:
[1] = Acute toxicity upon intraperitoneal administration to white mice; type: in vivo; settings: mouse, in vivo, ip, 14 days observation, average values with confidential limits at P=0.05
Experimental: (§1) The acute toxicity of the compounds according to the present invention was studied on white mice of both sexes with a mass of 20-25 g. A saturated aqueous solution of the compounds or a suspension in Tween-80 was administered to the animals intraperitoneally. The observation over the animals was carried out for 14 days. The results obtained were processed following the Litchfield-Wilkoxon method. As it follows from the data shown in Table 5 hereinbelow, the studied compounds have a very low acute toxicity, thus providing a large spectrum of the therapeutic effect.

white mice = experiment: as above; type: in vivo; settings: i.p.
Experimental: as §1

[2] = test system: arrhythmia caused by introduction of calcium chloride; experiment: Antiarrhythmic activity on the model of arrhythmia caused by calcium chloride (antagonism towards calcium); type: in vivo, mice; settings: for Dose of calcium chloride causing arrhythmia: control 85.0; for Dose of calcium chloride causing heart arrest: control 100.0
Experimental: In experiments on white mice with a mass of 18-25 g narcotized with urethane an electrocardiogram was recorded in the second standard lead. A 2% solution of calcium chloride was introduced into the tail vein at a constant rate (0.01 ml for 2 seconds). The dose of calcium chloride causing arrhythmia and the dose causing heart arrest were determined. In experimental groups the test compounds were administered 20-40 minutes prior to the beginning of the experiment intraperitoneally.

[3] = test system: hypertensive male rats of the Akamoto-Aoki line; experiment: Variation of arterial pressure upon intraperitoneal administration to hypertensive rats; type: in vivo
Experimental: The study of hypotensive properties of the compounds of this invention has been carried out of hypertensive male rats of the Akamoto-Aoki line aged 25-30 weeks. The animals were divided into groups (7-10 rats in each) and for 2 weeks before the beginning of the experiment they were subjected to an every-day training for adaptation to the unit for measurements of the arterial pressure. The systolic and diastolic arterial pressure were measured indirectly on the tail artery. The level of the arterial pressure prior to administration of the test compounds was measured by way of a triple determination thereof--2 days, one day and right before the administration of the preparation. The compounds were administered intraperitoneally in the form of a 2.5% aqueous solution or a 2.5% suspension in Twin-80 in the dose of 50 mg/kg. The measurement of the arterial pressure was effected 30 minutes, 1, 2, 3 and 4 hours and in some cases 24 hours after the administration of the preparation. For a number of compounds featuring a high efficiency, also determined was the dose causing reduction of the arterial pressure by 30% as compared with the starting level (ED30). The statistical processing of the data obtained was carried out using the Student certainty criterion.

[4] = test system: spontaneously hypertensive rats of the Akamoto-Aoki line; experiment: Systolic arterial pressure of spontaneously hypertensive rats upon a repeated peroral administration; type: in vivo
Experimental: Thus, after a four-days course of administration (once a day, per os) of the compounds according to the present invention an essential reduction of the arterial pressure in the test animals is observed which is not returned to the initial level even an expiration of four days after discontinuation of the preparation administration, whereas the hypotensive effect of nifedipine is manifested for only 8 hours.

[5] = 30 minutes, 50 mg/kg i.p. (nifedipine 1 mg/kg i.p.)
[6] = 1 hour, 50 mg/kg i.p. (nifedipine 1 mg/kg i.p.)
[7] = 2 hours, 50 mg/kg i.p. (nifedipine 1 mg/kg i.p.)
[8] = 4 hours, 50 mg/kg i.p. (nifedipine 1 mg/kg i.p.)
[9] = after four-days p.o. course, benzyl 40 mg/kg, allyl 50 mg/kg, nifedipine dose not given
[10] = p.o. once a day, benzyl 40 mg/kg, allyl 50 mg/kg, nifedipine dose not given
[11] = p.o., benzyl 40 mg/kg, allyl 50 mg/kg, nifedipine dose not given

Structure (SMILES) | LD50 at 336 h [1] [mg/kg] | Relative toxicity with respect to quinidine (LD50 / LD50 of quinidine) (white mice) | Dose of calcium chloride causing arrhythmia ([2]; compound dose 5 mg/kg i.p.) | Dose of calcium chloride causing heart arrest ([2]; compound dose 5 mg/kg i.p.) | Dose of calcium chloride causing arrhythmia ([2]; compound dose 15 mg/kg i.p.) | Dose of calcium chloride causing heart arrest ([2]; compound dose 15 mg/kg i.p.) | Average variation of the diastolic arterial pressure [3, 5] | Average variation of the systolic arterial pressure [3, 5] | Average variation of the diastolic arterial pressure [3, 6] | Average variation of the systolic arterial pressure [3, 6] | Average variation of the diastolic arterial pressure [3, 7] | Average variation of the systolic arterial pressure [3, 7] | Average variation of the diastolic arterial pressure [3, 8] | Average variation of the systolic arterial pressure [3, 8] | other results
CC[N+](CC)(CC)NCCC(=O)[O-] [3-(2,2,2-Triethylhydrazinium)propionate, 3-(2,2,2-triethylhydrazinium)propionate monohydrate] | > 3000 | above 19.2 | 100.0 | 120.0 | 127.0 | 142.5 | – | – | – | – | – | – | – | – | –
C[N+](C)(CC[N+](C)(C)NCCC(=O)[O-])NCCC(=O)[O-] [3-(2,2-dimethyl-2-[1',1'-dimethyl-2'-carboxylatoethylhydrazin-1'-ium]-ethylhydrazinium)propionate dihydrate] | 2100 | 13.4 | 96.0 | 112.0 | 108.5 | 120.0 | – | – | – | – | – | – | – | – | –
C[N+](C)(Cc1cccc2ccccc12)NCCC(=O)[O-] [3-(2,2-dimethyl-2-naphthylmethylhydrazinium)propionate] | > 3000 | above 19.2 | 108.0 | 132.5 | 126.7 | 143.0 | 0 % of the initial | 0 % of the initial | -3 % of the initial | 0 % of the initial | -2 % of the initial | -3 % of the initial | -14 % of the initial | -5 % of the initial | Average variation of the diastolic arterial pressure ([3]; 24 hours, 50 mg/kg i.p.): -7 % of the initial; Average variation of the systolic arterial pressure ([3]; 24 hours, 50 mg/kg i.p.): -4 % of the initial
C#CC[N+](C)(C)NCCC(=O)[O-] [3-(2,2-dimethyl-2-propargylhydrazinium)propionate hydrogen bromide] | 1650 | 10.5 | 110.4 | 125.0 | 120.0 | 135.0 | -17 % of the initial | -6 % of the initial | -16 % of the initial | -10 % of the initial | -7 % of the initial | -10 % of the initial | -10 % of the initial | -6 % of the initial | –
CCC[N+](C)(C)NCCC(=O)[O-] [3-(2,2-dimethyl-2-propylhydrazinium)propionate] | 1800 | 11.5 | 112.5 | 123.0 | 125.3 | 140.5 | – | – | – | – | – | – | – | – | –
CC[N+](C)(CC)NCCC(=O)[O-] [3-(2-methyl-2,2-diethylhydrazinium)propionate monohydrate] | 1450 | 9.3 | 105.5 | 118.6 | 120.0 | 136.0 | +10 % of the initial | +4 % of the initial | -4 % of the initial | +2 % of the initial | +1 % of the initial | 0 % of the initial | -8 % of the initial | -6 % of the initial | –
COC(=O)C1=C(C)NC(C)=C(C(=O)OC)C1c1ccccc1[N+](=O)[O-] [Nifedipine, reference compound] | – | – | – | – | – | – | -8 % of the initial | -4 % of the initial | -14 % of the initial | -12 % of the initial | -21 % of the initial | -8 % of the initial | -31 % of the initial | -11 % of the initial | Systolic arterial pressure, 5th day [4, 9]: 178 mm Hg; Systolic arterial pressure, 8th day [4, 9]: 186 mm Hg; Systolic arterial pressure, 10th day [4, 9]: 182 mm Hg; Systolic arterial pressure, 2nd day after administration ([4]; p.o. once a day, allyl 50 mg/kg, nifedipine dose not given): 148 mm Hg; Systolic arterial pressure, 1st day after administration ([4]; p.o. once a day, benzyl 40 mg/kg (initial 195.8), allyl 50 mg/kg (initial 176.6), nifedipine dose not given (initial 184.0)): 150.0 mm Hg; Systolic arterial pressure, 2nd day before administration [4, 10]: 186 mm Hg; Systolic arterial pressure, 3rd day after administration [4, 10]: 153 mm Hg; Systolic arterial pressure, 4th day after administration [4, 10]: 146 mm Hg; Systolic arterial pressure, 4th day before administration [4, 10]: 180 mm Hg; Systolic arterial pressure, 3rd day before administration ([4]; p.o. once a day, benzyl 40 mg/kg, nifedipine dose not given): 183 mm Hg; Percent in parentheses (change of systolic pressure from initial), 2nd day after administration ([4]; p.o., allyl 50 mg/kg, nifedipine dose not given): 20%; Percent in parentheses (change of systolic pressure from initial), 1st day after administration [4, 11]: 18%; Percent in parentheses (change of systolic pressure from initial), 3rd day after administration [4, 11]: 17%; Percent in parentheses (change of systolic pressure from initial), 4th day after administration [4, 11]: 21%; Percent in parentheses (change of systolic pressure from initial), 4th day before administration [4, 11]: 2%; Percent in parentheses (change of systolic pressure from initial), 5th day [4, 11]: 3%; duration of hypotensive effect ([4]; repeated p.o.): 8 h
C=C[C@H]1C[N@@]2CC[C@H]1C[C@@H]2[C@@H](O)c1ccnc2ccc(OC)cc12 [Quinidine, reference compound] | 156 | 1 | – | – | – | – | – | – | – | – | – | – | – | – | Dose of calcium chloride causing arrhythmia ([2]; compound dose 3 mg/kg i.p.): 126.9; Dose of calcium chloride causing heart arrest ([2]; compound dose 3 mg/kg i.p.): 136.0; Dose of calcium chloride causing arrhythmia ([2]; compound dose 10 mg/kg i.p.): 120.8; Dose of calcium chloride causing heart arrest ([2]; compound dose 10 mg/kg i.p.): 133.5
